Experimental data taken from PubChem BioAssay (NCI).
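Cells were grown in 96-well plates and exposed to each compound for 48 hours at five concentrations; endpoints were interpolated linearly between bracketing concentrations, or set to the highest concentration if not reached. GI50 = concentration required for 50% inhibition of growth. At the TGI there is no net growth.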

Test system: MDA-MB-468 breast
Assay: NCI tumour cell line growth inhibition, 48 h

Row | Compound | GI50 [µM] | TGI [µM]
1 | C=C(C)[C@@H]1CC[C@]2(C(=O)N3CCN(C)CC3)CC[C@]3(C)[C@H](CC[C@@H]4[C@@]5(C)CC[C@H](O)C(C)(C)[C@@H]5CC[C@]43C)[C@@H]12 | 1.82 | 3.63
2 | COC(=O)C[Se]C(=O)Cc1c(C)n(C(=O)c2ccc(Cl)cc2)c2ccc(OC)cc12 | 1.47 | 4
3 | Cc1ccnc(NC(c2ccccc2)c2ccc3cccnc3c2O)c1 (centres undefined) | 3.25 | 14.3
4 | COc1ccc(Nc2ncccc2C(=O)NCc2cn(Cc3cccc(Oc4ccccc4)c3)nn2)c(OC)c1 | 0.77 | –
5 | COC1/C=C/OC2(C)Oc3c(C)c(O)c4c(O)c(c(C=NOC(c5ccccc5)c5ccccc5)c(O)c4c3C2=O)NC(=O)/C(C)=C/C=C/C(C)C(O)C(C)C(O)C(C)C(OC(C)=O)C1C (centres undefined) | 1.05 | 2.78
6 | O=[N+]([O-])c1cccc([I+]c2ccccc2)c1 | 2.1 | 17.4
7 | COc1cccc(/C=C2\CCc3ccccc3C2=O)c1 | 12.6 | 29.3
8 | Cc1nc2cc(Nc3nc(Nc4ccc(F)cc4)nc(N4CCCC4)n3)ccc2n1Cc1ccccc1 | 1.61 | 3.48
9 | CS(=O)(=O)c1ccc(-c2cnc(NCc3ccco3)n3cnnc23)cc1 | 27 | > 100
10 | O=C1c2ccccc2-c2ccccc2C1(Cl)Cl | 1.74 | 3.3
11 | CNC(=O)c1cc(Oc2cccc3nc(NC(=O)Nc4ccc(F)cc4F)ccc23)ccn1 | 1.83 | > 50
12 | O=C(NC(Cc1ccccc1)C(=O)CCl)OCc1ccccc1 (centres undefined) | 3.69 | 15.4
13 | O=C(Nc1ccc(Cl)cc1)c1cc2ccccc2cc1OP(=O)(O)O | 4.28 | 29.3
14 | O=C(Nc1nc(-c2ccccc2Cl)cs1)c1cc(-c2ccc(Cl)cc2)nc2ccc(Cl)cc12 | 5.6 | 79.6
15 | COc1cc(OC)c(/C=C/C(=O)c2c(O)cc(OC)c(C3CCN(C)CC3)c2OC)c(OC)c1 | 1.54 | 3.03
